{
  "source": "patent US7459141B2",
  "about": "“Technetium-99m-labeled organic germanium nanocolloids, method of preparing the same and use thereof” (Korea Atomic Energy Research Institute, priority 2006, dated 2008)",
  "origin": "cited, not measured here",
  "data": [
    {"smiles": "O=C(O)C[CH2][Ge](=[O])[O][Ge](=[O])[CH2]CC(=O)O", "note": "[Ge-132, bis-carboxyethylgermanium sesquioxide]", "values": [
      {"measurement": "tissue concentration after an intravenous (i.v) injection", "setting": "intravenous", "result": "concentrates in liver, kidney, spleen and gastrointestine tract"},
      {"measurement": "tissue concentration after an oral administration", "setting": "oral", "result": "concentrates highly in spleen"}
    ]}
  ]
}
